For orientation: IC50 means the point on the concentration scale where inhibition reaches its midpoint.

One compound from patent publication US20230146395A1, “Substituted Pyrimidines and Uses Thereof” (Verge Analytics, Inc., priority 2020, published 2023) can be followed below.

The target of experiment [1] is T1, Full length human recombinant PIKFYVE (Homo sapiens, UniProt Q9Y2I7).
T1 construct: Full length human recombinant PIKFYVE; purchased Carna Biosciences (Kobe, Japan); host or cells: baculovirus expression system
T1 sequence (Q9Y2I7 whole entry): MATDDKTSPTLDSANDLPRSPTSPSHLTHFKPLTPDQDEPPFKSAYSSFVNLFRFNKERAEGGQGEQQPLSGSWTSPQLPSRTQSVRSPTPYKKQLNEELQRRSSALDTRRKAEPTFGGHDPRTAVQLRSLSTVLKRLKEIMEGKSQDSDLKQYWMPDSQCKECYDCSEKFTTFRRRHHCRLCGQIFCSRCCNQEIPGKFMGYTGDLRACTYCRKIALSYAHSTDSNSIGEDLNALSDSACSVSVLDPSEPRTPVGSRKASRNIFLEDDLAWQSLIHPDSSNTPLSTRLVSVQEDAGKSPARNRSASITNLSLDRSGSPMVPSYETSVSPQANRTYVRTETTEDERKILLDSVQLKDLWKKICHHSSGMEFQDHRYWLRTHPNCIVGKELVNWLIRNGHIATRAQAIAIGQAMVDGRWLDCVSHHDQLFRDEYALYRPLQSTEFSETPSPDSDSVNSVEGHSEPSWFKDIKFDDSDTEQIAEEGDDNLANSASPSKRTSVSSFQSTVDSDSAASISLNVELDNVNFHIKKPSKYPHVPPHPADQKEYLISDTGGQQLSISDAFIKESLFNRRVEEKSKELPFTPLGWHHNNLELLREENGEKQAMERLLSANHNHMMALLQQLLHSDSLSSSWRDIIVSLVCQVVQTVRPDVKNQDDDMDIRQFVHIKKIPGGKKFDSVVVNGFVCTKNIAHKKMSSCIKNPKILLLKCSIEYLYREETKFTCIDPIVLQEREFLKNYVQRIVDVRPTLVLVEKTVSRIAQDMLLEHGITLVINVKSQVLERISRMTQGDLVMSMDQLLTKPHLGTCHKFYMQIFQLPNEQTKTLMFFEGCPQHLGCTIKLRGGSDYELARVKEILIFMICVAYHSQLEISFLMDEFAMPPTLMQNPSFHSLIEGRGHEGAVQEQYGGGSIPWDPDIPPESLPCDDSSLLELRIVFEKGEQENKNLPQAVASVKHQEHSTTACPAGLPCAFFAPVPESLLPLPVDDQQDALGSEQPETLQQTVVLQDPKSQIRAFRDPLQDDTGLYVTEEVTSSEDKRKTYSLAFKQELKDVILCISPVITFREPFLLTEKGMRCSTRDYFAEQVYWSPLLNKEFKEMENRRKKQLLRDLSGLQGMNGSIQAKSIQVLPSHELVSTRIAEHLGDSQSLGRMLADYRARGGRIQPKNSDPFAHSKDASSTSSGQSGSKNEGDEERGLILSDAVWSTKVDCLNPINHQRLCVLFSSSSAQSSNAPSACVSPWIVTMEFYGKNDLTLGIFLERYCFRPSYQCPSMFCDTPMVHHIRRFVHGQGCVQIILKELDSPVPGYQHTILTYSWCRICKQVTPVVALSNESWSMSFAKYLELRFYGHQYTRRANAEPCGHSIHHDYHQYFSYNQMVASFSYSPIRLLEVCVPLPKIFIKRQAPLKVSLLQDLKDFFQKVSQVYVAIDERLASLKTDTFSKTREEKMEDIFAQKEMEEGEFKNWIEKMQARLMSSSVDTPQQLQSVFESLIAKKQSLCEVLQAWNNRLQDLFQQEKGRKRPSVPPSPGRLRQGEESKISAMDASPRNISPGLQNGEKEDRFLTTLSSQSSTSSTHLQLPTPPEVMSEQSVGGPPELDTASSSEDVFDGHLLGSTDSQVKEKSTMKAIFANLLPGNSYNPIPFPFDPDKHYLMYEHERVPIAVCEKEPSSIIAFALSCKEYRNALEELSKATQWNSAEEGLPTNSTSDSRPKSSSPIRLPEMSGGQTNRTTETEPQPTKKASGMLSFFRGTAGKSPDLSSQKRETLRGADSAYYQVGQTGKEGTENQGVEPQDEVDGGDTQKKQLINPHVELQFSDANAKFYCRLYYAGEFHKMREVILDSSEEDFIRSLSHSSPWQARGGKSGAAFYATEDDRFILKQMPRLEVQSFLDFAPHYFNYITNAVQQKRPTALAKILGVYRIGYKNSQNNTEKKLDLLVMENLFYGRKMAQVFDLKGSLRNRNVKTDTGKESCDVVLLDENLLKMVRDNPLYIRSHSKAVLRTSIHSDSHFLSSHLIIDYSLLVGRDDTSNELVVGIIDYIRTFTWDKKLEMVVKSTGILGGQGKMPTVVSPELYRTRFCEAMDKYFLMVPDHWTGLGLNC
Kind of experiment: Inhibition of PIKfyve (microfluidic electrophoresis kinase assay, PI3P/PS substrate). The format is biochemical. The conditions noted are these: 12 concentrations. Put shortly:
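GST-tagged full-length human PIKFYVE (baculovirus; 2 nM) with fluorescent PI3P/PS (1 μM PI3P) and […] in pH 7.5 HEPES with Mg2+/Mn2+, 1% DMSO, 3 h at room temperature. PI(3,5)P product/substrate ratio read by microfluidic electrophoresis; 12-point % inhibition versus no-enzyme and DMSO controls.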

Another experiment addresses T2, PI3Kδ (Homo sapiens, UniProt O00329).
T2 construct: Full-length N-terminal; GST (N); host or cells: SF9 cells (baculovirus)
Kind of experiment: Inhibition of PI3K isoforms: PI3Kδ (microfluidic electrophoresis kinase assay, PIP2/PS substrate). The format is biochemical. The conditions noted are these: p110δ/p85α, ATP 90 μM; read-out: PI3Kd IC50. As for the experimental part: The kinase substrate was prepared by mixing and sonicating fluorescently-labeled phosphatidylinositol 4,5-phosphate (PIP2) with phospho-L-[…]:20 ratio in 50 mM HEPES buffer pH7.5. The kinase reactions were assembled in 384-well plates (Greiner) in a total volume of […] as follows. The kinase proteins were pre-diluted in an assay buffer comprising 50 mM HEPES, pH 7.5, 0.012% CHAPS, 1 mM DTT, 10 mM Na3VaO4, 10 mM 3-GP, 3 mM MgCl2, and 40 mM NaCl2, and dispensed into a 384-well plate (10 μL per well). Test compounds were serially pre-diluted in DMSO and added to the protein samples by acoustic dispensing (Labcyte Echo). The concentration of DMSO was equalized to 1% in all samples. All test compounds were tested at 12 concentrations. The control samples (0%-inhibition in the absence of inhibitor, DMSO only) and 100%-inhibition (in the absence of enzyme) were assembled in replicates of four and were used to calculate %-inhibition in the presence of test compounds. The reactions were initiated by addition of 10 μL of the PIP2/PS substrate supplemented with ATP. The final concentration of enzymes was 0.5 nM (PI3Kα), 1 nM (PI3Kβ), 10 nM (PI3Kγ), and 0.25 nM (PI3Kδ). The final concentration of ATP was 90 μM (PI3Kα), 60 μM (PI3Kβ), 100 μM (PI3Kγ), and 90 μM (PI3Kδ). The final concentration of PIP2/PS substrate was 1 μM (PIP2). The kinase reactions were allowed to proceed for 3 h at room temperature. Following incubation, the reactions were quenched by addition of 50 μL of termination buffer (100 mM HEPES, pH 7.5, 0.01% Triton X-100, 20 mM EDTA). Terminated plates were analyzed on a microfluidic electrophoresis instrument (Caliper LabChip® 3000, Caliper Life Sciences/Perkin Elmer). The change in the relative fluorescence intensity of the PI(4,5)P substrate and PI(3,4,5)P product peaks was measured. The activity in each test sample was determined as the product to sum ratio (PSR): P/(S+P), where P is the peak height of the product, and S is the peak height of the substrate. Percent inhibition (Pinh) was determined using the following equation: Pinh=(PSR0% inh-PSRcompound)/(PSR0% inh-PSR100% inh)*100 in which PSRcompound is the product/sum ratio in the presence of compound, PSR0% inh is the product/sum ratio in the absence of compound, and the PSR100% inh is the product/sum ratio in the absence of the enzyme. […] (Pinh versus compound concentration) were fitted by a four-parameter sigmoid dose-response model using XLfit software (IDBS).

Structures can show the parent of a compound that is named as a salt.

T2 sequence (O00329 whole entry): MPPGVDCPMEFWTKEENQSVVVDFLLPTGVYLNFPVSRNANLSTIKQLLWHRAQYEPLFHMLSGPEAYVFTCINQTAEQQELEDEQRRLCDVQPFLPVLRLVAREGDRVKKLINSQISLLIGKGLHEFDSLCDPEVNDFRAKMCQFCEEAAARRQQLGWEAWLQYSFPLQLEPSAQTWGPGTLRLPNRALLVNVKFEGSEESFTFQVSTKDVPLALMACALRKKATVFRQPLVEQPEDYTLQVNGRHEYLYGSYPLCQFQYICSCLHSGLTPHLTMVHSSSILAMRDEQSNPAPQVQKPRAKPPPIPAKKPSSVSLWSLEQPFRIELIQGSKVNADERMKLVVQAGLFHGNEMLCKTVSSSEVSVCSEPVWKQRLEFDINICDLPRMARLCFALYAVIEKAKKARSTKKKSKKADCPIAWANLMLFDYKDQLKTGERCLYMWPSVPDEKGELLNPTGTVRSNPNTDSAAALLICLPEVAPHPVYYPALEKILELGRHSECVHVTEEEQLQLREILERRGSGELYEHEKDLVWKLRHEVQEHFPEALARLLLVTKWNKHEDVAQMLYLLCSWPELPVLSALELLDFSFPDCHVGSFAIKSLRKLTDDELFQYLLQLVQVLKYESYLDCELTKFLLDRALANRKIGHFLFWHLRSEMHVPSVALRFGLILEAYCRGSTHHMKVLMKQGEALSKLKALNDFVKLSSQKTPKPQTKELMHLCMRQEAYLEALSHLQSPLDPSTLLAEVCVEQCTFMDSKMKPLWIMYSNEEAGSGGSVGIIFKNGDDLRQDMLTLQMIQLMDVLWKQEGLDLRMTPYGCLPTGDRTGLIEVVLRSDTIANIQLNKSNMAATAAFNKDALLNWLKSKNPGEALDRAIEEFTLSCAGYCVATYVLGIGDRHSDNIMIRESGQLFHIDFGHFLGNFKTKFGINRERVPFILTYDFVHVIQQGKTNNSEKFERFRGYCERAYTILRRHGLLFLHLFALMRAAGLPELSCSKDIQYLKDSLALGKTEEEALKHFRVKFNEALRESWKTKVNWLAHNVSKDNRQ
T2 sequence (P27986 whole entry partner): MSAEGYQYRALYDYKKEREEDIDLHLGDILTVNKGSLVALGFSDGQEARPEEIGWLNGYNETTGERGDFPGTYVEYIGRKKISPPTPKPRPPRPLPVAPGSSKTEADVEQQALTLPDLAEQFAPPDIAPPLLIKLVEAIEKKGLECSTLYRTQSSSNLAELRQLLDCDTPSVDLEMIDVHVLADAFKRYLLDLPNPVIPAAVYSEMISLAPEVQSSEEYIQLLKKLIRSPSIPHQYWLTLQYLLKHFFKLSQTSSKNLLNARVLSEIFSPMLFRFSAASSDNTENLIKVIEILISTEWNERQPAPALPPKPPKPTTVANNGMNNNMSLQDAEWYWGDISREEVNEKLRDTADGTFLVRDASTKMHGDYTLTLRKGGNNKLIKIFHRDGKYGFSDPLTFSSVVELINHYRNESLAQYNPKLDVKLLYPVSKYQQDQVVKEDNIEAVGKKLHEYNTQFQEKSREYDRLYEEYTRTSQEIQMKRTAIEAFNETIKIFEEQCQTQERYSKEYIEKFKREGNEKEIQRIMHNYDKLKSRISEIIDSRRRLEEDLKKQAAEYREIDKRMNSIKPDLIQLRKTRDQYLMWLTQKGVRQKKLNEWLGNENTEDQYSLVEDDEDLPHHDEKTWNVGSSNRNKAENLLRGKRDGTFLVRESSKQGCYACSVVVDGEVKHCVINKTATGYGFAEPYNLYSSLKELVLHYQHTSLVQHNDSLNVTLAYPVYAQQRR

Regarding `c1ccc(-c2cc(Nc3nc(N4CCOCC4)c4oc(-c5ccncc5)cc4n3)[nH]n2)cc1` [Compound 1, 4-morpholino-N-(3-phenyl-1H-pyrazol-5-yl)-6-(pyridin-4-yl)furo[3,2-d]pyrimidin-2-amine hydrochloride], the 50% inhibitory concentration (IC50) in experiment [1] was found to be 0.0014 µM; at PI3Kδ, 2.71 µM.
